The structures appear in SMILES notation. ≈ marks a conversion by molar mass, not a printed value.

The test has as its system Mycobacterium tuberculosis. Briefly: Antimycobacterial activity against InhA overexpressing Mycobacterium tuberculosis InhA-OE. It counts as functional.
`COc1ccc2c(c1)nc(NC(=O)c1cc(C(N)=S)ccn1)n2C` gave a minimal inhibitory concentration (MIC) of 0.72 µM (≈ 0.246 µg/mL). For `Cn1cc(O)nc1NC(=O)c1cc(C(N)=S)ccn1` the value was 1.99 µM (≈ 0.552 µg/mL). The compound `NNC(=O)c1ccncc1` [ISONIAZID] yielded an MIC of 0.74 µM (≈ 0.101 µg/mL). To `Cn1cc(C#N)nc1NC(=O)c1cc(C(N)=S)ccn1` belongs 2.53 µM (≈ 0.724 µg/mL). For `Cn1c(NC(=O)c2cc(C(N)=S)ccn2)nc2cc(O)ccc21` the value was 0.54 µM (≈ 0.177 µg/mL).

The MIC is the lowest concentration that inhibits growth of the organism. A high value points to weaker potency.

The values are drawn from ChEMBL document CHEMBL5143581, “Design, synthesis and molecular docking studies of imidazole and benzimidazole linked ethionamide derivatives as inhibitors of InhA and antituberculosis agents” (Bioorg Med Chem Lett, 2022).
